From the supplement of paper PMC10307832

Experiments:
Assay in all cases: relative viability (nuclei count vs DMSO), 5 days (fraction); higher = more cells survive
[1] = compound: CCn1c(-c2nonc2N)nc2cnc(Oc3cccc(NC(=O)c4ccc(OCCN5CCOCC5)cc4)c3)cc21 + N=C(N)NC(=N)NCCc1ccccc1 [Phenformin] (partner 250 µM)
Outline: (§1)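 A single step with final 0.05% Triton X-100, 1% formaldehyde and 1 ug/ml Hoechst fixed the cells and stained nuclei 5 days after treatment. Lung cancer cell lines in 1536-well plates had been treated by pin tool the day after seeding with one drug alone or a fixed anchor-drug dose plus five library-drug doses (not always all listed) in √10 steps, and nuclei were counted on 4× images. Relative viability is the ratio of nuclei in treated wells to nuclei in vehicle wells, taken as the median of duplicate plates.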

[2] = compound: CCn1c(-c2nonc2N)nc2cnc(Oc3cccc(NC(=O)c4ccc(OCCN5CCOCC5)cc4)c3)cc21 + C[C@]1(O)C[C@@H](c2nc(-c3ccc4ccc(-c5ccccc5)nc4c3)c3c(N)nccn32)C1 [Linsitinib] (partner 1 µM)
Outline: as §1

[3] = compound: CCC1=CN=CN=C1N2CCN(CC2)CC3=NC4=C(N3)C=C(C=C4)C(F)(F)F + Cc1cc(Nc2cc(N3CCN(C)CC3)nc(Sc3ccc(NC(=O)C4CC4)cc3)n2)n[nH]1 [Tozasertib] (partner 0.1 µM)
Outline: as §1

[4] = compound: CCC1=CN=CN=C1N2CCN(CC2)CC3=NC4=C(N3)C=C(C=C4)C(F)(F)F + O=C(c1cc(Cc2n[nH]c(=O)c3ccccc23)ccc1F)N1CCN(C(=O)C2CC2)CC1 [Olaparib] (partner 8 µM)
Outline: as §1

Cell Line | relative viability ([1]; first compound 0.04 µM) | relative viability ([1]; first compound 0.1265 µM) | relative viability ([1]; first compound 0.4 µM) | relative viability ([1]; first compound 1.265 µM) | relative viability ([1]; first compound 4 µM) | relative viability ([2]; first compound 0.04 µM) | relative viability ([2]; first compound 0.1265 µM) | relative viability ([2]; first compound 0.4 µM) | relative viability ([2]; first compound 1.265 µM) | relative viability ([2]; first compound 4 µM) | relative viability ([3]; first compound 0.04 µM) | relative viability ([3]; first compound 0.1265 µM) | relative viability ([3]; first compound 0.4 µM) | relative viability ([3]; first compound 4 µM) | relative viability ([4]; first compound 0.04 µM) | relative viability ([4]; first compound 0.1265 µM) | relative viability ([4]; first compound 0.4 µM) | relative viability ([4]; first compound 1.265 µM) | relative viability ([4]; first compound 4 µM) | relative viability ([3]; first compound 1.265 µM)
HCC-827 | 0.489 | 0.484 | 0.439 | 0.414 | 0.399 | 0.974 | 0.907 | 0.94 | 0.992 | 0.823 | 0.441 | 0.409 | 0.397 | 0.435 | 0.698 | 0.706 | 0.721 | 0.567 | 0.595 | 
NCI-H1666 | 0.597 | 0.603 | 0.582 | 0.211 | 0.259 | 0.797 | 0.985 | 0.949 | 0.667 | 0.413 | 0.556 | 0.723 | 0.575 | 0.635 | 0.743 | 0.729 | 0.772 | 0.727 | 0.71 | 0.569
NCI-H1915 | 0.38 | 0.355 | 0.285 | 0.188 | 0.169 | 1.16 | 1.11 | 1.07 | 1.07 | 1.06 | 0.458 | 0.412 | 0.429 | 0.356 | 0.27 | 0.248 | 0.252 | 0.268 | 0.249 | 0.356
NCI-H2009 | 0.493 | 0.357 | 0.284 | 0.192 | 0.224 | 1.01 | 0.99 | 0.999 | 0.701 | 0.423 | 0.778 | 0.698 | 0.727 | 0.678 | 0.647 | 0.649 | 0.632 | 0.578 | 0.594 | 0.746
ChaGo-K-1 | 0.599 | 0.413 | 0.306 | 0.351 | 0.398 |  |  |  |  |  | 0.206 | 0.256 | 0.233 | 0.224 | 0.392 | 0.39 | 0.457 | 0.431 | 0.381 | 0.195
COR-L 105 | 0.523 | 0.416 | 0.389 | 0.31 | 0.271 | 0.774 | 0.766 | 0.862 | 0.451 | 0.391 | 0.374 | 0.34 | 0.327 | 0.379 | 0.654 | 0.711 | 0.623 | 0.648 | 0.762 | 0.395
NCI-H2170 | 0.468 | 0.417 | 0.388 | 0.355 | 0.315 |  |  |  |  |  | 0.719 | 0.74 | 0.648 | 0.643 | 0.632 | 0.574 | 0.571 | 0.537 | 0.601 | 0.662
